According to ChEMBL document CHEMBL3885861, “Open TG-GATES”:

Species: Rattus norvegicus
Test: Open TG-GATES - Regimen: Single
Format: toxicity, organism-based, Sprague-Dawley
Parameters: regimen Single, gender Male, age 6 weeks
Conditions: in vivo, po, route gavage; for TC / TG / TP / gamma-GTP / A/G / ALP / ALT / AST / BUN / CRE / Ca / Cl / GLC / IP / K / LDH / Na / PL / RALB: tissue Plasma; for APTT / Bas / Eos / Fbg / Hb / Ht / Lym / MCH / MCHC / MCV / Mono / Neu / PT / Plat / RBC / Ret / WBC: tissue Blood; for KIDNEY_L / KIDNEY_R / KIDNEY_TOTAL: tissue Kidney; for LIVER: tissue Liver
[1] = 300 mg/kg, 24 h, dose level Low
[2] = 1000 mg/kg, 3 h, dose level Middle
[3] = 1000 mg/kg, 6 h, dose level Middle
[4] = 1000 mg/kg, 9 h, dose level Middle
[5] = 1000 mg/kg, 24 h, dose level Middle

## O=C(O)c1ccccc1Nc1ccccc1 [FENAMIC ACID]
[1]
  TC: 74.8 mg/dL
  TG: 88 mg/dL
  TP: 5.6 g/dL
  gamma-GTP: 1 IU/L
[2]
  TERMINAL_BW: 208.9 g
  APTT: 17.2 s
  Bas: 0.8%
  Eos: 0.6%
  Fbg: 253.8 mg/dL
  Hb: 13.4 g/dL
  Ht: 40.2%
  Lym: 71.4%
  MCH: 20.5 pg
  MCHC: 33.5%
  MCV: 61.1 fL
  Mono: 2.8%
  Neu: 24.4%
  PT: 14.1 s
  Plat: 115 x10_4/uL
  RBC: 657.4 x10_4/ul
  Ret: 8%
  WBC: 93.3 x10_2/uL
  KIDNEY_L: 0.9 g
  KIDNEY_R: 0.9 g
  KIDNEY_TOTAL: 1.8 g
  LIVER: 7.8 g
  A/G: 0.9
  ALP: 1837.8 IU/L
  ALT: 38.4 IU/L
  AST: 75.4 IU/L
  BUN: 9.6 mg/dL
  CRE: 0.1 mg/dL
  Ca: 11 mg/dL
  Cl: 105.2 meq/L
  GLC: 169.2 mg/dL
  IP: 10.3 mg/dL
  K: 4 meq/L
  LDH: 71.8 IU/L
  Na: 144 meq/L
  PL: 96.4 mg/dL
  RALB: 2.5 g/dL
  TC: 49 mg/dL
  TG: 37 mg/dL
  TP: 5.4 g/dL
  gamma-GTP: 1 IU/L
[3]
  TERMINAL_BW: 203 g
  APTT: 17 s
  Bas: 0.8%
  Eos: 1%
  Fbg: 286.4 mg/dL
  Hb: 13.7 g/dL
  Ht: 40.4%
  Lym: 66.6%
  MCH: 21.2 pg
  MCHC: 34%
  MCV: 62.4 fL
  Mono: 3.2%
  Neu: 28.8%
  PT: 14.4 s
  Plat: 112.9 x10_4/uL
  RBC: 646.6 x10_4/ul
  Ret: 7.7%
  WBC: 98.8 x10_2/uL
  KIDNEY_L: 0.9 g
  KIDNEY_R: 0.9 g
  KIDNEY_TOTAL: 1.8 g
  LIVER: 7.4 g
  A/G: 0.9
  ALP: 1734.6 IU/L
  ALT: 37 IU/L
  AST: 77.6 IU/L
  BUN: 11.4 mg/dL
  CRE: 0.1 mg/dL
  Ca: 11.1 mg/dL
  Cl: 107 meq/L
  GLC: 128.4 mg/dL
  IP: 10.8 mg/dL
  K: 3.9 meq/L
  LDH: 73.4 IU/L
  Na: 146.2 meq/L
  PL: 105.6 mg/dL
  RALB: 2.7 g/dL
  TC: 53 mg/dL
  TG: 37 mg/dL
  TP: 5.8 g/dL
  gamma-GTP: 1.2 IU/L
[4]
  TERMINAL_BW: 207.8 g
  APTT: 14.8 s
  Bas: 0.4%
  Eos: 0.8%
  Fbg: 281 mg/dL
  Hb: 13.9 g/dL
  Ht: 41.1%
  Lym: 61.8%
  MCH: 21.2 pg
  MCHC: 33.8%
  MCV: 62.8 fL
  Mono: 3%
  Neu: 33.8%
  PT: 14.6 s
  Plat: 111.6 x10_4/uL
  RBC: 655.6 x10_4/ul
  Ret: 8.2%
  WBC: 80.5 x10_2/uL
  KIDNEY_L: 1 g
  KIDNEY_R: 0.9 g
  KIDNEY_TOTAL: 1.9 g
  LIVER: 7.4 g
  A/G: 0.9
  ALP: 1965.8 IU/L
  ALT: 44.6 IU/L
  AST: 75.4 IU/L
  BUN: 13.8 mg/dL
  CRE: 0.1 mg/dL
  Ca: 11.1 mg/dL
  Cl: 107.8 meq/L
  GLC: 142 mg/dL
  IP: 10.9 mg/dL
  K: 4 meq/L
  LDH: 68.6 IU/L
  Na: 146.2 meq/L
  PL: 102.8 mg/dL
  RALB: 2.6 g/dL
  TC: 45.8 mg/dL
  TG: 29 mg/dL
  TP: 5.7 g/dL
  gamma-GTP: 1 IU/L
[5]
  TERMINAL_BW: 210.6 g
  APTT: 14.3 s
  Bas: 0.8%
  Eos: 0.8%
  Fbg: 388 mg/dL
  Hb: 13.5 g/dL
  Ht: 40.1%
  Lym: 70.6%
  MCH: 21.3 pg
  MCHC: 33.8%
  MCV: 62.9 fL
  Mono: 3%
  Neu: 24.8%
  PT: 15 s
  Plat: 114.1 x10_4/uL
  RBC: 637.8 x10_4/ul
  Ret: 7.1%
  WBC: 120.4 x10_2/uL
  KIDNEY_L: 1 g
  KIDNEY_R: 1 g
  KIDNEY_TOTAL: 2 g
  LIVER: 8.4 g
  A/G: 0.9
  ALP: 2284.2 IU/L
  ALT: 41.2 IU/L
  AST: 66 IU/L
  BUN: 16.4 mg/dL
  CRE: 0.2 mg/dL
  Ca: 11.4 mg/dL
  Cl: 106.2 meq/L
  GLC: 164.6 mg/dL
  IP: 8.5 mg/dL
  K: 3.7 meq/L
  LDH: 142 IU/L
  Na: 145.4 meq/L
  PL: 104.6 mg/dL
  RALB: 2.6 g/dL
  TC: 47.4 mg/dL
  TG: 46.2 mg/dL
